What was measured:
rats = assay: Shock-Induced Suppression of Drinking (Rats) (SSD) Test; assay type: in vivo, rat; conditions: significant, P less than 0.05, Students' t-test, vs control
Experimental: Male rats in the weight range of 200 to 220 grams are deprived of water for 48 hours and deprived of food for 24 hours before testing. Normally, the rats are orally intubated (5 ml/kg) with the test compound (based on mg/kg body weight). The vehicle control group of rats is also intubated by mouth. A positive control group of rats is also orally administered a control dose of 18 mg/kg of chlordiazepoxide. Random selection of the rats is utilized in dosing. The rats are returned to the cage for one hour. Sixty minutes after drug administration, the rat is quietly removed from its cage and the hind feet wiped with Signa electrode gel made by Parker Laboratories or Orange, N.J. When intraperitoneal (i.p.) administration was used, the protocol was identical except that the drugs were administered (5 ml/kg) 30 minutes prior to testing. The rat is placed on the floor in the chamber facing the licking tube. The animal is allowed 5 minutes to make 20 licking responses and receive the first shock (0.5 mA). […] This period is automatically started, counted and terminated. The number of licks and shocks are recorded. The activity of the compound tested is evaluated by comparing the mean shocks of the group dosed with the test compound to both the mean shocks of the vehicle and positive control groups via a Students' t-test. […]

[1] = test system: [^3 H]flunitrazepam binding, lysed mitochondrial-synaptosomal (P2) fraction from the cerebral cortex; assay: [^3 H]flunitrazepam binding test; conditions: 0.2 nM [^3 H]flunitrazepam, rat cerebral cortex membranes, 90 min at 0° C.
monkeys = assay: oral administration to monkeys, deaths; assay type: in vivo, monkey; conditions: 100 mg/kg
[2] = approximate oral LD50 in the rat; conditions: in vivo
[3] = test system: [^3 H]flunitrazepam binding, lysed mitochondrial-synaptosomal (P2) fraction from the cerebral cortex; conditions: general statement on reference compounds; cited from earlier work

C=CCN1Cc2nc3c(cnn3CCCCC)c(N)c2C1=O [Example 4, 6-Allyl-4-amino-6,7-dihydro-1-n-pentylpyrazolo[3,4-b]pyrrolo[3,4-e]pyridin-5(1H)-one]
increase in the number of shocks taken (anti-conflict / anti-anxiety activity) (rats): showed activity
effect on flunitrazepam binding [1]: activity as displacers of flunitrazepam binding

CCCCCn1ncc2c(N)c3c(nc21)CN(CCC)C3=O [Example 5, 4-Amino-6,7-dihydro-1-n-pentyl-6-n-propylpyrazolo[3,4-b]pyrrolo[3,4-e]pyridin-5(1H)-one]
deaths (monkeys): no deaths
increase in the number of shocks taken (anti-conflict / anti-anxiety activity) (rats): showed activity
effect on flunitrazepam binding [1]: activity as displacers of flunitrazepam binding
LD50 [2]: > 800 mg/kg

CCCCNc1c(C(=O)OCC)cnc2c1cnn2CC [cartazolate]
effect on flunitrazepam binding (known compounds) [3]: enchancement of the binding

CCCCNc1c(C(=O)OCC)c(C)nc2c1cnn2CC [tracazolate]
effect on flunitrazepam binding (known compounds) [3]: enchancement of the binding

Reference: patent US4511568A, “CNS-Depressant pyrazolopyridines” (ICI Americas Inc., priority 1982, dated 1985)
